In article PMC8691750, “Euphorbia Factor L2 ameliorates the Progression of K/BxN Serum-Induced Arthritis by Blocking TLR7 Mediated IRAK4/IKKβ/IRF5 and NF-kB Signaling Pathways” (Frontiers in Pharmacology, 2021):
Several values for one entry are separate records, joined by “and”; a condition that tells them apart may be missing. Identical values can stand only once.

Tested on: TLR signalling pathway genes
Assay: Toll-like Receptor Pathway PCR array of ankles
Type: in vivo, C57BL/6 mice
Settings: for S40/SIA (fold change) / log2(fold change) S40/SIA: S40 group vs SIA group
Experimental: Total RNA was isolated from the right ankles using the TRIzol Reagent (Invitrogen) and purified with RNeasy Mini Kit and RNase-Free DNase Set (Qiagen). RNA quality was determined using a spectrophotometer and was reversely transcribed using Wcgene® mRNA cDNA kit. The complementary DNA was used on the Toll-like Receptor Pathway PCR Array plate (Wcgene® biotech, China).

## C=C1C(OC(=O)c2ccccc2)CC2C(C=C(C)C(=O)C3(OC(C)=O)CC(C)C(OC(=O)c4ccccc4)C3C1OC(C)=O)C2(C)C (stereo not shown) [EFL2, Euphorbia factor L2]
Irak2 mRNA
  S40/SIA (fold change): 0.4814
  log2(fold change) S40/SIA: -1.055
Irak3 mRNA in ankles of STA mice, relative to GAPDH, one value per animal (samples S401-S405)
  fold-GAPDH, Irak3: 0.01639 and 0.02176 and 0.01462 and 0.00868
Irak3 mRNA
  S40/SIA (fold change): 0.4891
  log2(fold change) S40/SIA: -1.032
Irak4 mRNA in ankles of STA mice, relative to GAPDH, one value per animal (samples S401-S405)
  fold-GAPDH, Irak4: 0.005444 and 0.007871 and 0.004771 and 0.003248
Irf1 mRNA in ankles of STA mice, relative to GAPDH, one value per animal (samples S401-S405)
  fold-GAPDH, Irf1: 0.006938 and 0.008232
Irf1 mRNA
  S40/SIA (fold change): 0.3319
  log2(fold change) S40/SIA: -1.591
Irf3 mRNA in ankles of STA mice, relative to GAPDH, one value per animal (samples S401-S405)
  fold-GAPDH, Irf3: 0.01116 and 0.01143 and 0.004857
Irf3 mRNA
  S40/SIA (fold change): 0.3241
  log2(fold change) S40/SIA: -1.626
Jun mRNA in ankles of STA mice, relative to GAPDH, one value per animal (samples S401-S405)
  fold-GAPDH, Jun: 0.04078 and 0.0443 and 0.03642 and 0.03036
Jun mRNA
  S40/SIA (fold change): 0.3678
  log2(fold change) S40/SIA: -1.443
Ly86 mRNA in ankles of STA mice, relative to GAPDH, one value per animal (samples S401-S405)
  fold-GAPDH, Ly86: 0.008619 and 0.01651 and 0.01407 and 0.001011
Ly96 mRNA in ankles of STA mice, relative to GAPDH, one value per animal (samples S401-S405)
  fold-GAPDH, Ly96: 0.00648 and 0.008818 and 0.008037 and 0.003545
Ly96 mRNA
  S40/SIA (fold change): 0.3878
  log2(fold change) S40/SIA: -1.367
Map2k3 mRNA in ankles of STA mice, relative to GAPDH, one value per animal (samples S401-S405)
  fold-GAPDH, Map2k3: 0.0383 and 0.04062 and 0.04366 and 0.0009844
Map2k4 mRNA in ankles of STA mice, relative to GAPDH, one value per animal (samples S401-S405)
  fold-GAPDH, Map2k4: 0.006054 and 0.009032 and 0.01171 and 0.005161
Map2k4 mRNA
  S40/SIA (fold change): 0.8651
  log2(fold change) S40/SIA: -0.209
Map3k1 mRNA in ankles of STA mice, relative to GAPDH, one value per animal (samples S401-S405)
  fold-GAPDH, Map3k1: 0.006062 and 0.005781 and 0.1236
Map3k7 mRNA in ankles of STA mice, relative to GAPDH, one value per animal (samples S401-S405)
  fold-GAPDH, Map3k7: 0.01592 and 0.021 and 0.01646 and 0.01133
Mapk8ip3 mRNA in ankles of STA mice, relative to GAPDH, one value per animal (samples S401-S405)
  fold-GAPDH, Mapk8ip3: 0.001064 and 0.001038
Mapk8 mRNA in ankles of STA mice, relative to GAPDH, one value per animal (samples S401-S405)
  fold-GAPDH, Mapk8: 0.01945 and 0.02479 and 0.0101
Mapk9 mRNA in ankles of STA mice, relative to GAPDH, one value per animal (samples S401-S405)
  fold-GAPDH, Mapk9: 0.001275 and 0.001267 and 0.00173 and 0.000754
Muc13 mRNA in ankles of STA mice, relative to GAPDH, one value per animal (samples S401-S405)
  fold-GAPDH, Muc13: 6.559e-5 and 0.0002674 and 0.000223 and 0.0001076
Myd88 mRNA in ankles of STA mice, relative to GAPDH, one value per animal (samples S401-S405)
  fold-GAPDH, Myd88: 0.009066 and 0.0089 and 0.006533 and 0.004478
Myd88 mRNA
  S40/SIA (fold change): 0.1447
  log2(fold change) S40/SIA: -2.789
Nfkb1 mRNA in ankles of STA mice, relative to GAPDH, one value per animal (samples S401-S405)
  fold-GAPDH, Nfkb1: 0.02137 and 0.03037 and 0.044 and 0.01259
Nfkb2 mRNA in ankles of STA mice, relative to GAPDH, one value per animal (samples S401-S405)
  fold-GAPDH, Nfkb2: 0.005983 and 0.008129 and 0.004372 and 0.004079
Nfkb2 mRNA
  S40/SIA (fold change): 0.2395
  log2(fold change) S40/SIA: -2.062
Nfkbia mRNA in ankles of STA mice, relative to GAPDH, one value per animal (samples S401-S405)
  fold-GAPDH, Nfkbia: 0.03064 and 0.03111 and 0.02056 and 0.01675
Nfkbia mRNA
  S40/SIA (fold change): 0.2445
  log2(fold change) S40/SIA: -2.032
Nfkbib mRNA in ankles of STA mice, relative to GAPDH, one value per animal (samples S401-S405)
  fold-GAPDH, Nfkbib: 0.00388 and 0.005737 and 0.004539 and 0.002397
Nfkbib mRNA
  S40/SIA (fold change): 0.4073
  log2(fold change) S40/SIA: -1.2959
Nfrkb mRNA in ankles of STA mice, relative to GAPDH, one value per animal (samples S401-S405)
  fold-GAPDH, Nfrkb: 0.003341 and 0.001769 and 0.003291
Nr2c2 mRNA in ankles of STA mice, relative to GAPDH, one value per animal (samples S401-S405)
  fold-GAPDH, Nr2c2: 0.008167 and 0.009954 and 0.006912 and 0.004742
Nr2c2 mRNA
  S40/SIA (fold change): 0.5521
  log2(fold change) S40/SIA: -0.8571
Peli1 mRNA in ankles of STA mice, relative to GAPDH, one value per animal (samples S401-S405)
  fold-GAPDH, Peli1: 0.01623 and 0.02035 and 0.01296 and 0.0006428
Peli1 mRNA
  S40/SIA (fold change): 0.462
  log2(fold change) S40/SIA: -1.114
Pglyrp1 mRNA in ankles of STA mice, relative to GAPDH, one value per animal (samples S401-S405)
  fold-GAPDH, Pglyrp1: 0.001422 and 0.0004159 and 0.002383
Pglyrp1 mRNA
  S40/SIA (fold change): 0.2161
  log2(fold change) S40/SIA: -2.21
Ppara mRNA in ankles of STA mice, relative to GAPDH, one value per animal (samples S401-S405)
  fold-GAPDH, Ppara: 0.001398 and 0.003006 and 0.002272 and 0.0004292
Ptgs2 mRNA in ankles of STA mice, relative to GAPDH, one value per animal (samples S401-S405)
  fold-GAPDH, Ptgs2: 0.001434 and 0.000397 and 0.0002674 and 0.0003018
Ptgs2 mRNA
  S40/SIA (fold change): 0.03786
  log2(fold change) S40/SIA: -4.723
Rel mRNA
  S40/SIA (fold change): 0.2762
  log2(fold change) S40/SIA: -1.8562
Ticam1 mRNA
  S40/SIA (fold change): 0.59
  log2(fold change) S40/SIA: -0.7611
Tlr2 mRNA
  S40/SIA (fold change): 0.1682
  log2(fold change) S40/SIA: -2.571
Tlr3 mRNA
  S40/SIA (fold change): 0.7859
  log2(fold change) S40/SIA: -0.3477
Tlr4 mRNA
  S40/SIA (fold change): 0.5705
  log2(fold change) S40/SIA: -0.8096
Tlr5 mRNA
  S40/SIA (fold change): 0.188
  log2(fold change) S40/SIA: -2.411
Tlr7 mRNA
  S40/SIA (fold change): 0.09461
  log2(fold change) S40/SIA: -3.402
